Consider 2 compounds from paper PMC7412250, “Novel Chrysin-De-Allyl PAC-1 Hybrid Analogues as Anticancer Compounds: Design, Synthesis, and Biological Evaluation” (Molecules, 2020).

One experiment deals with BT-20. Nature of the experiment: MTT cytotoxicity assay, BT-20. In kind it is cell-based. Conditions: Homo sapiens, mean ± SEM of three independent experiments in triplicate, read-out: IC50 Breast Cancer BT-20. The method, then:
(§1) A panel of cancer cell lines, including breast (MDA-MB-231, BT20), brain (U251), and colon (HCT116), as well as a normal cell line (human mammary epithelial cells: HMECs), were grown as adherent monolayers in flasks with Dulbecco’s Modified Eagle Medium (DMEM), supplemented with 10% fetal bovine serum (FBS) and 1% penicillin and streptomycin in a humidified incubator with 5% CO2 at 37 °C.
(§2) The (3-(4,5-dimethylthiazol-2-yl)-2,5-diphenyltetrazolium bromide) (MTT) assay was used to determine the cytotoxicity of the 15 chrysin derivatives in the above-mentioned cell lines. Briefly, cells were harvested with 0.05% trypsin, 2.21 mM ethylenediaminetetraacetic acid (EDTA), 1× from Corning (Corning, NY, USA), and suspended at a final density of 5 × 10^3 cells/well. Cells were seeded (180 μL/well) into 96-well plates. Initially, four different concentrations of each compound were added to find the compounds with the greatest antiproliferative efficacy in the MDA-MB-231 cell line (0, 1, 10, and 100 μM). Subsequently, […] different concentrations […] of each compound were added to the remaining cell lines mentioned above. After 68 h of incubation, 20 μL of the MTT solution (4 mg/mL) were added to each well, and the plates were incubated for 4 h. This allowed viable cells to biotransform the yellow-colored MTT into dark-blue formazan crystals. Subsequently, the medium was discarded, and 150 μL of DMSO were added to each well to dissolve the formazan crystals. The absorbance was determined at 590 nm using a DTX 880 multimode detector (Beckman Coulter life sciences, IN, USA). The IC50 ± SD concentrations were calculated from three experiments performed in triplicate/duplicate. The IC50 values were calculated from the cell survival percentages obtained for each compound tested at different concentrations. Similarly, the cytotoxicity of the test compounds was compared to the normal cell line (HMEC).
Background: Formazan colour is commonly taken as a measure of viable cells.

For experiment [1], the system named is MDA-MB-231 cells. Nature of the experiment: MTT cytotoxicity assay, MDA-MB-231. In kind it is cell-based, human. As to conditions: Homo sapiens; MDA-MB-231, MTT, mean ± SD of two independent experiments in triplicate; read-out: IC50 (cell survival). The protocol:
The synthesized chrysin derivatives were evaluated for cytotoxic efficacy in the human breast cancer cell line, MDA-MB-231, using the 3-(4,5-dimethylthiazol-2yl)-2,5-diphenyltetrazolium bromide (MTT) colorimetric assay and doxorubicin was used as a reference anticancer drug.
as §1
as §2, with “The IC50 ± SD concentrations were calculated from three experiments performed in triplicate/duplicate.” left out

For another experiment, the system named is HCT116. Nature of the experiment: MTT cytotoxicity assay, HCT116. The class given is cell-based. As to conditions: Homo sapiens, HCT-116, mean ± SEM of three independent experiments in triplicate, read-out: IC50 Colon Cancer HCT116. The protocol:
as §1, §2

The test system of a further experiment is U-251. The experiment can be described thus: MTT cytotoxicity assay, U-251. As to conditions: Homo sapiens, mean ± SEM of three independent experiments in triplicate, read-out: IC50 Brain Cancer U-251. In kind it is cell-based. The method, then: as §1, §2
Experiment [2] relates to MDA-MB-231 cells. The experiment can be described thus: Western blot of apoptotic proteins (Bak, cytochrome c, caspase-7, caspase-9, mTOR). The class given is cell-based, human. As to conditions: for cleavage of the initiator caspase, caspase 9 / expression of cytochrome c / caspase 7 activation: compared to vehicle; for mTOR expression: 5 or 10 µM; for expression of Bak: compared to cells incubated in the absence of lead compounds. The protocol: To measure the expression of Bak, cytochrome c, caspase-7, caspase-9, and mTOR, Western blotting was performed by lysing MDA-MB-231 cells using a lysis buffer (50 mM Tris–HCl, 150 mM NaCl, 1 mM EDTA, 0.5% NP-40, 1% Triton, 0.1% SDS) containing a protease inhibitor cocktail that consisted of Aprotinin, Bestatin, E-64, Leupeptin, and Pepstatin A (Sigma-Aldrich Life Science, St. Louis, MO, USA). The bicinchoninic acid (BCA) quantification assay was used to determine the protein levels in the cell extracts (G-BIOSCIENCES, St. Louis, MO, USA). The extracted proteins were loaded onto a 10–20% tris-glycine gel. After separation, the proteins were transferred from the gel onto a polyvinylidene difluoride (PVDF) membrane. The membranes were blocked using 5% milk in Tris-buffered saline Tween 20 for 30 min and incubated overnight with primary antibodies against Bak (1:1000), cytochrome C (1:1000), caspase-3 (1:1000), caspase 7 (1:1000), caspase 9 (1:1000), mTOR (1:1000), or B-actin (1:2000) in 5% BSA (bovine serum albumin) at 4 °C. The next day, membranes were washed and incubated with horseradish peroxidase-labelled (HRP) anti-rabbit secondary antibody (1:5000 dilutions). The membrane was incubated with the antibody for an additional 1 h. Subsequently, the membranes were washed and developed by Clarity Western ECL substrate (Bio-Rad; Hercules, CA, USA). Protein was detected using a ChemiDoc Imaging System (Bio-Rad). Densitometry analyses of the blots for the detected protein were quantified using the ImageJ software. Data was calculated as ratios of protein/β-actin.

For `O=C(COc1cc(O)c2c(=O)cc(-c3ccccc3)oc2c1)N/N=C/c1ccc(O)cc1O` [Compound 4g, (E,Z)-N’-(2,4-Dihydroxybenzylidene)-2-((5-hydroxy-4-oxo-2-phenyl-4H-chromen-7-yl)oxy)acetohydrazide], the half-inhibitory concentration (IC50) with BT-20 was 5.32 ± 0.72 µM; in the experiment on MDA-MB-231 cells [1] it was 5.98 ± 2.25 µM; in the experiment with HCT116, 2.68 ± 0.15 µM; in the experiment with U-251, 7.64 ± 0.11 µM. Moreover, in the experiment with MDA-MB-231 cells [2] (5 µM), the “cleavage of the initiator caspase, caspase 9” value is reported as “significant cleavage”. For the same compound, the “expression of cytochrome c” value in the experiment with MDA-MB-231 cells [2] (5 µM) is “significant increase”. Besides, in the experiment on MDA-MB-231 cells [2], the mTOR expression result is “no significant change”. Besides, the “caspase 7 activation” value with MDA-MB-231 cells [2] (both concentrations (5 and 10 µM)) is given as “activated caspase 7”. In the experiment on MDA-MB-231 cells [2], the “expression of Bak” value is reported as “increase”.

With `O=C(COc1cc(O)c2c(=O)cc(-c3ccccc3)oc2c1)N/N=C/c1ccc(O)c(O)c1O` [Compound 4i, (E,Z)-2-((5-Hydroxy-4-oxo-2-phenyl-4H-chromen-7-yl)oxy)-N’-(2,3,4-trihydroxybenzylidene)acetohydrazide], the half-inhibitory concentration (IC50) was found to be 10.4 ± 0.2 µM with BT-20, 9.4 ± 1.45 µM in the experiment with MDA-MB-231 cells [1], 20.09 ± 0.13 µM in the experiment with HCT116 and 25.4 ± 7.53 µM in the experiment on U-251. In the experiment on MDA-MB-231 cells [2] (10 µM), the “caspase 7 activation” value is “activated caspase 7”. Besides, the “cleavage of the initiator caspase, caspase 9” value in the experiment with MDA-MB-231 cells [2] (10 µM) is listed as “significant cleavage”. The “expression of cytochrome c” value in the experiment on MDA-MB-231 cells [2] (10 µM) is reported as “significant increase”. Besides, the mTOR expression entry in the experiment on MDA-MB-231 cells [2] was “no significant change”. Besides, the “expression of Bak” value with MDA-MB-231 cells [2] is listed as “increase”.

What is called IC50 is the midpoint of a concentration-inhibition curve.
